From JP2013032353A, “ロキソプロフェン含有医薬組成物” (priority 2011, dated 2013)

Assays:
[1] = tested on: gastric mucosal injury caused by loxoprofen [ロキソプロフェンに起因する胃粘膜障害]; experiment: Suppression of loxoprofen-induced gastrointestinal injury in rats (Test Examples 3, 6, 9, 12, 15, 24); format: in vivo, rat (Wistar); conditions: rat, 1 h before loxoprofen sodium hydrate 120 mg/kg p.o., result in words
[2] = Interaction study: storage of loxoprofen sodium hydrate/drug mixtures and of the single drugs at 60 °C (Test Examples 1, 4, 7, 10, 13, 16, 18, 20, 21, 23, 25, 27); format: physicochemical; conditions: stored 1 week in glass bottle (3K), evaluated at start, 1 day, 3 days (2 days in Test Examples 10 and 16) and 1 week

| Molecule | state in the glass bottle on storage [2] | further results |
| --- | --- | --- |
| C[C@@H]([C@H](O)c1ccccc1)N(C)C.Cl [dl−メチルエフェドリン塩酸塩] | 変化は生じなかった | reduction of loxoprofen-induced gastric mucosal injury ([1]; oral, 20, 60, 180 mg/5 mL/kg): 軽減した |
| Nc1c(Br)cc(Br)cc1CN[C@H]1CC[C@H](O)CC1 [アンブロキソール塩酸塩] | 変化は生じなかった | – |
| CN(C)CCOC(c1ccc(Cl)cc1)c1ccccn1 (centres unmarked) [カルビノキサミンマレイン酸塩] | 変化は生じなかった | reduction of loxoprofen-induced gastric mucosal injury ([1]; oral, 0.75, 75 mg/5 mL/kg): 軽減した |
| CN1CCC[C@@H]1CCO[C@](C)(c1ccccc1)c1ccc(Cl)cc1 [クレマスチンフマル酸塩] | 変化は生じなかった | reduction of loxoprofen-induced gastric mucosal injury ([1]; oral, 1 mg/5 mL/kg): 軽減した |
| CN(C)CC[C@@H](c1ccc(Cl)cc1)c1ccccn1.O=C(O)/C=C\C(=O)O [クロルフェニラミンマレイン酸塩, d−クロルフェニラミンマレイン酸塩] | 変化は生じなかった | reduction of loxoprofen-induced gastric mucosal injury ([1]; oral, 5, 40 mg/5 mL/kg): 軽減した |
| COc1ccccc1OCC(O)CO (centres unmarked) [グアイフェネシン] | 変化は生じなかった | – |
| COc1ccc2c3c1O[C@H]1[C@@H](O)CC[C@H]4[C@@H](C2)N(C)CC[C@@]341 [ジヒドロコデインリン酸塩] | – | reduction of loxoprofen-induced gastric mucosal injury ([1]; oral, 8, 24, 72 mg/5 mL/kg, n=6): 軽減した |
| CN1CCC(OC(c2ccccc2)c2ccccc2)CC1 [ジフェニルピラリン塩酸塩] | 変化は生じなかった | reduction of loxoprofen-induced gastric mucosal injury ([1]; oral, 3, 10 mg/5 mL/kg): 軽減した |
| COc1ccc2c(c1)[C@]13CCCC[C@@H]1[C@H](C2)N(C)CC3 [デキストロメトルファン臭化水素酸塩水和物] | 変化は生じなかった | – |
| CN(Cc1cc(Br)cc(Br)c1N)C1CCCCC1 [ブロムヘキシン塩酸塩] | 変化は生じなかった | – |
| CC(C(=O)[O-])c1ccc(CC2CCCC2=O)cc1.O.O.[Na+] (centres unmarked) [ロキソプロフェンナトリウム水和物, Monosodium 2-[4-[(2-oxocyclopentyl)methyl]phenyl]propanoate dihydrate] | 変化は生じなかった | – |
| リゾチーム塩酸塩: リゾチーム塩酸塩 (lysozyme hydrochloride) | 変化は生じなかった | – |
